IC50 data for 18 compounds are collected here from US11976083B2, “Inhibitors of peptidylarginine deiminases” (Gilead Sciences, Inc., priority 2020, dated 2024).

For orientation: IC50 means the concentration needed to halve the response being measured.

For this assay, the target named is T1, human PAD4 (Homo sapiens, UniProt Q9UM07).
T1 construct: human PAD4 (NM_012387), A2-P663, was PCR amplified; His-SUMO (N, cleaved yes); made in house; host or cells: E. coli BL21(DE3)
The assay is described as follows: In vitro PAD4 BAEE biochemical assay. Conditions: BAEE substrate 3 mM, 5 nM PAD4, 2 mM calcium chloride; geometric mean of multiple experiments. The procedure, abridged:
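Recombinant PAD4 (5 nM final) with 2 mM CaCl2 was preincubated with compound for 30 min at 25 °C in MOPS pH 7.6 buffer with DTT, then reacted with 3 mM BAEE for 2 h at 25 °C. Released ammonia was detected fluorimetrically with o-phthalaldehyde/DTT; IC50 from four-parameter fit, geometric mean of experiments.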

T1 sequence (Q9UM07 2-663): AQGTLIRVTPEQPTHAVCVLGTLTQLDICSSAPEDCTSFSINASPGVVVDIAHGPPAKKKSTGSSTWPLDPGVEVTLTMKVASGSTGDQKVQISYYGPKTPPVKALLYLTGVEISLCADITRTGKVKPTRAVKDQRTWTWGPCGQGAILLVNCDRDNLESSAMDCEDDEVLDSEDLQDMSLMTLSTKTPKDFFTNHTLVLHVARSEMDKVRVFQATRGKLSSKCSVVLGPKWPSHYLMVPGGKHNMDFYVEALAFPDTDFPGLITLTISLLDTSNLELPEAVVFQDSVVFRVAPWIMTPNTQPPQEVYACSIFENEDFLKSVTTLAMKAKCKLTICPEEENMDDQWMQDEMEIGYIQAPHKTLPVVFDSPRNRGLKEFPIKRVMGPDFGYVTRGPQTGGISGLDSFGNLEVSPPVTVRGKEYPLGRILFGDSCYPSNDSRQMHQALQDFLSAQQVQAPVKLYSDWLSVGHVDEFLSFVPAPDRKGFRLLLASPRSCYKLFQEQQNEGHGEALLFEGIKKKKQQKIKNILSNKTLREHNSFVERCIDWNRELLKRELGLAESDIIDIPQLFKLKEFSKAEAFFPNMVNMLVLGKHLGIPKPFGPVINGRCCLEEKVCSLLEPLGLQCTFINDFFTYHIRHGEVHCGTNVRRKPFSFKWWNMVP

For `C[C@H]1NC(=O)[C@H]2C[C@@H]2CCCCn2c(-c3nc4cc(C(=O)N[C@H]5CNCC[C@@H]5F)c(F)cc4n3C)cc3ccc1nc32` [Example 499, 6-fluoro-~{N}-[(3~ {S},4~{S})-4-fluoro-3-piperidyl]-1-methyl-2-[(2~{R},7~{S})-2-methyl-4-oxo-3,12,18-triazatetracyclo [10.5.2.0^{5,7}.0^{15,19}]nonadeca-1(18), 13,15(19),16-tetraen-13-yl]benzimidazole-5-carboxamide], the IC50 was 163 nM. To `COc1cc(C(=O)N2CCC[C@@H](N)C2)cc2nc(-c3cc4ccc5nc4n3CCCCCC(C)(C)C(=O)N[C@@H]5C)n(C)c12` [Example 58, (10~{R})-16-[5-[(3~{R})-3-aminopiperidine-1-carbonyl]-7-methoxy-1-methyl-benzimidazol-2-yl]-7,7,10-trimethyl-1,9,18-triazatricyclo[9.5.2.0^{14,17}]octadeca-11(18),12,14(17),15-tetraen-8-one] belongs 77 nM; to `C[C@H]1NC(=O)C(C)(C)CCCCCCn2c(-c3nc4cc(C(=O)N[C@H]5CNCC[C@@H]5F)c(F)cc4n3CCOC(F)F)cc3ccc1nc32` [Example 502, 1-[2-(difluoromethoxy)ethyl]-6-fluoro-~{N}-[(3~ {S},4~{S})-4-fluoro-3-piperidyl]-2-[(11~{R})-8,8,11-trimethyl-9-oxo-1,10,19-triazatricyclo[10.5.2.0^ {15,18}]nonadeca-12(19),13,15(18),16-tetraen-17-yl]benzimidazole-5-carboxamide], 128 nM. To `COCC1(C)CCCCCCn2c(-c3nc4cc(C(=O)N5[C@H]6CC[C@@H]5[C@H](N)C6)cc(OC)c4n3C)cc3ccc(cc32)[C@@H](C)NC1=O` (stereo partly drawn) [Example 341, (11~{R})-17-[5-[(1~{R},2~{R},4~{S})-2-amino-7-azabicyclo[2.2.1]heptane-7-carbonyl]-7-methoxy-1-methyl-benzimidazol-2-yl]-8-(methoxymethyl)-8,11-dimethyl-1,10-diazatricyclo[10.5.2.0^{15,18}]nonadeca-12(19),13,15(18),16-tetraen-9-one] belongs 59 nM. For `COc1cc(C(=O)N2CC[C@@H](OC)[C@@H](N)C2)cc2nc(-c3cc4ccc5nc4n3CCCCC[C@H]3C[C@]3(C)C(=O)N[C@@H]5C)n(C)c12` [Example 175], the concentration for half-maximal inhibition (IC50) came to 231 nM. For the compound `CCO[C@@H]1CCN(C(=O)c2cc(OC)c3c(c2)nc(-c2cc4ccc5nc4n2CCCCCCC(C)(C)C(=O)N[C@@H]5C)n3C)C[C@@H]1N` [Example 104, (11~{R})-17-[5-[(3~{S},4~{R})-3-amino-4-ethoxy-piperidine-1-carbonyl]-7-methoxy-1-methyl-benzimidazol-2-yl]-8,8,11-trimethyl-1,10,19-triazatricyclo[10.5.2.0^{15,18}]nonadeca-12(19),13,15(18),16-tetraen-9-one], the IC50 turned out to be 115 nM. To `C[C@H]1NC(=O)C(C)(C)OCCCCCn2c(-c3nc4cc(C(=O)N[C@H]5CNCC[C@@H]5F)c(F)cc4n3C3CC3)cc3ccc1nc32` [Example 540, 1-cyclopropyl-6-fluoro-~{N}-[(3~{S},4~{S})-4-fluoro-3-piperidyl]-2-[(11~{R})-8,8,11-trimethyl-9-oxo-7-oxa-1,10,19-triazatricyclo[10.5.2.0^ {15,18}]nonadeca-12(19),13,15(18),16-tetraen-17-yl] benzimidazole-5-carboxamide] belongs 90 nM. For `C[C@H]1NC(=O)[C@@H]2C[C@H]2CCCC(F)(F)Cn2c(-c3nc4cc(C(=O)N[C@H]5CNCC[C@@H]5F)c(F)cc4n3C)cc3ccc1nc32` [Example 595, 2-[(2~{R},5~{R},7~ {R})-11,11-difluoro-2-methyl-4-oxo-3,13,19-triazatetracyclo[11.5.2.0^ {5,7}.0^{16,20}]icosa-1(19),14,16(20),17-tetraen-14-yl]-6-fluoro-~ {N}-[(3~{S},4~{S})-4-fluoro-3-piperidyl]-1-methyl-benzimidazole-5-carboxamide] the value was 37 nM; for `CO[C@@H]1CCN(C(=O)c2cc(Cl)c3c(c2)nc(-c2cc4ccc5nc4n2CC(F)(F)CCC[C@@H]2C[C@H]2C(=O)N[C@@H]5C)n3C2CC2)C[C@@H]1N` [Example 806, (2~{R},5~{R},7~{R})-14-[5-[(3~{S},4~{R})-3-amino-4-methoxy-piperidine-1-carbonyl]-7-chloro-1-cyclopropyl-benzimidazol-2-yl]-11,11-difluoro-2-methyl-3,13,19-triazatetracyclo[11.5.2.0^ {5,7}.0^{16,20}] icosa-1(18),14,16,19-tetraen-4-one], 42 nM. To `COc1cc(C(=O)N2CCC[C@@H](N)C2)cc2nc(-c3cc4ccc5cc4n3CCCCCCNC(=O)c3ncccc3-5)n(C)c12` [Example 52, 17-[5-[(3~{R})-3-aminopiperidine-1-carbonyl]-7-methoxy-1-methyl-benzimidazol-2-yl]-6,9,16-triazatetracyclo[14.5.2.0^{2,7}.0^{19,23}] tricosa-1(22),2,4,6,17,19(23),20-heptaen-8-one] belongs 424 nM.

As to `C[C@H]1NC(=O)[C@@H]2C[C@H]2CCCC(F)(F)Cn2c(-c3nc4cc(C(=O)N5C[C@H](N)[C@@H]6CC[C@H]5C6)cc(F)c4n3C3CC3)cc3ccc1nc32` [Example 438, (2~{R},5~{R},7~{R})-14-[5-[(1~{S},4~{R},5~{R})-4-amino-2-azabicyclo[3.2.1]octane-2-carbonyl]-1-cyclopropyl-7-fluoro-benzimidazol-2-yl]-11,11-difluoro-2-methyl-3,13,19-triazatetracyclo[11.5.2.0^{5,7}.0^{16,20}] icosa-1(19),14,16(20),17-tetraen-4-one], the IC50 was determined as 25 nM. To `COc1cc(C(=O)N2[C@H]3CC[C@@H]2[C@H](N)C3)cc2nc(-c3cc4ccc5nc4n3CCCCCCC(C)(C)C(=O)N[C@@H]5C)n(C3CC3)c12` [Example 253, (11~{R})-17-[5-[(1~{R},2~{R},4~{S})-2-amino-7-azabicyclo[2.2.1]heptane-7-carbonyl]-1-cyclopropyl-7-methoxy-benzimidazol-2-yl]-8,8,11-trimethyl-1,10,19-triazatricyclo[10.5.2.0^{15,18}]nonadeca-12(19),13,15(18),16-tetraen-9-one] belongs 103 nM; to `C[C@H]1NC(=O)[C@H]2[C@@H](CCCC(F)(F)Cn3c(-c4nc5cc(C(=O)N[C@H]6CNCC[C@@H]6F)c(F)cc5n4C4CC4)cc4ccc1nc43)C2(F)F` [Example 389, 1-cyclopropyl-6-fluoro-~{N}-[(3~{S},4~{S})-4-fluoro-3-piperidyl]-2-[(2~{R},5~{R},7~{R})-6,6,11,11-tetrafluoro-2-methyl-4-oxo-3,13,19-triazatetracyclo[11.5.2.0^{5,7}.0^{16,20}]icosa-1(19),14,16(20),17-tetraen-14-yl]benzimidazole-5-carboxamide], 31 nM. To `COCCn1c(-c2cc3ccc4nc3n2CCCCCc2nccnc2C(=O)N[C@@H]4C)nc2cc(C(=O)N3CC[C@@H](OC)[C@@H](N)C3)cc(OC)c21` [Example 510, (2~{R})-17-[5-[(3~ {S),4~{R})-3-amino-4-methoxy-piperidine-1-carbonyl]-7-methoxy-1-(2-methoxyethyl)benzimidazol-2-yl]-2-methyl-3,6,9,16,22-pentazatetracyclo[14.5.2.0^ {5,10}.0^{19,23}] tricosa-1(22),5(10),6,8,17,19 (23),20-heptaen-4-one] belongs 277 nM.

`COc1cc(C(=O)N2CC[C@@H](OC)[C@@H](N)C2)cc2nc(-c3cc4ccc5nc4n3CCCCCc3ccnc(C)c3C(=O)N[C@@H]5C)n(C)c12` [Example 697, (2~{R})-17-[5-[(3~{S}, 4~{R})-3-amino-4-methoxy-piperidine-1-carbonyl]-7-methoxy-1-methyl-benzimidazol-2-yl]-2,6-dimethyl-3,7,16,22-tetrazatetracyclo[14.5.2.0^ {5,10}.0^{19,23}] tricosa-1(22),5(10),6,8,17, 19(23),20-heptaen-4-one]: the IC50 is 74 nM. Turning to `[2H]C([2H])([2H])O[C@@H]1CCN(C(=O)c2cc(F)c3c(c2)nc(-c2cc4ccc5nc4n2CC(F)(F)CCC[C@@H]2C[C@H]2C(=O)N[C@@H]5C)n3C2CC2)C[C@@H]1N` [Example 641, (2~{R},5~{R},7~{R})-14-[5-[(3~{S},4~{R})-3-amino-4-(trideuteriomethoxy)piperidine-1-carbonyl]-1-cyclopropyl-7-fluoro-benzimidazol-2-yl]-11,11-difluoro-2-methyl-3,13,19-triazatetracyclo[11.5.2.0^ {5,7}.0^{16,20}]icosa-1(19),14,16(20),17-tetraen-4-one], the 50% inhibitory concentration (IC50) came out at 49 nM.

Turning to `COc1cc(C(=O)N2CC[C@@H](OC)[C@@H](N)C2)cc2nc(-c3cc4ccc5nc4n3CCCCCc3cncc(F)c3C(=O)N[C@@H]5C)n(C)c12` [Example 650, (2~{R})-17-[5-[(3~{S}, 4~{R})-3-amino-4-methoxy-piperidine-1-carbonyl]-7-methoxy-1-methyl-benzimidazol-2-yl]-6-fluoro-2-methyl-3,8,16,22-tetrazatetracyclo[14.5.2.0^ {5,10}.0^{19,23}]tricosa-1(22),5,7,9,17,19(23),20-heptaen-4-one], the IC50 was determined as 59 nM. Turning to `COc1cc(C(=O)N2C[C@H](N)CC[C@@H]2C)cc2nc(-c3cc4ccc5nc4n3CCCCCCC(C)(C)C(=O)N[C@@H]5C)n(C)c12` [Example 5, (11~{R})-17-[5-[(2~{S},5~{R})-5-amino-2-methyl-piperidine-1-carbonyl]-7-methoxy-1-methyl-benzimidazol-2-yl]-8,8,11-trimethyl-1,10,19-triazatricyclo[10.5.2.0^{15,18}]nonadeca-12(19),13,15(18),16-tetraen-9-one], the IC50 was determined as 76 nM.
